In patent EP0005015B1, “Use of a xanthine derivate in the manufacture of a medicament” (BEECHAM - WUELFING GmbH & Co. KG, priority 1978, dated 1979):
Where “and” joins values, the source holds several entries; their conditions need not be identical. Equal entries are not always repeated.

Key:
[1] = Acute oral toxicity (LD50); conditions: mouse, in vivo; mice, per oral
[2] = Blood pressure changes during the contractility experiment; format: in vivo, Cat
[3] = Solubility in aqueous media; format: physicochemical
skeletal muscle = test: pO2 measurement in the control (non-ligated) hind limb muscle; format: in vivo, Cat; conditions: individual cats
Experimental: A p02― electrode was inserted in the muscle tissue (m. gastrocnemius) of both hindlegs of an anaesthetized cat. After recording the p02 of the normal perfused muscle, the blood flow to one measuring site was restricted by ligating the femoral artery. […] The values were constant after 30 to 60 min. After having reached a constant level of p02, the vehicle was given, followed by the test substance.

[4] = tested on: ischaemic skeletal muscle; test: pO2 measurement in ischaemic skeletal muscle (m. gastrocnemius, femoral artery ligated), Pt-needle electrodes; format: in vivo, Cat
Experimental: (§1) Cats of either sex were anaesthetized with urethane/chloralose (120/60 mg/kg i.p. In the course of the experiments, pentobarbital was injected intravenously (V. antebrachii ceph.) via a plastic tube. The intraduodenal (i.d.) application of compound weas conducted by means of a plastic catheter, which was inserted into the duodenum.
The reference electrode, and Ag/AgCl system was sputtered on the glass mantle of the cathode, or it was a separate electrode. The cathode was coated with a polystyrol and a collodium membrane. A constant voltage supply provided a polarizing voltage between 600 and 800 mV. The reducing current was measured by a nano-ampere amplifying meter. The- cathode was inserted in the tissue by means of a motor-driven micromanipulator.
A p02― electrode was inserted in the muscle tissue (m. gastrocnemius) of both hindlegs of an anaesthetized cat. After recording the p02 of the normal perfused muscle, the blood flow to one measuring site was restricted by ligating the femoral artery. […] After having reached a constant level of p02, the vehicle was given, followed by the test substance.
The mean value and the standard deviation were calculated, in order to check the significance of the effect.

[5] = tested on: ischaemic skeletal muscle; test: Skeletal muscle contractility with restricted femoral blood flow; format: in vivo, Cat
Experimental: as §1
Cats of either sex were anaesthetized as for p02 measurement. After dissection of the skin of the calf muscles, the sciatic nerve was cut about 3 cm proximal to the knee. The tendon of the calf muscles was cut and connected with an isometric force transducer (SWEMA, SG 3). In order to maintain constant differences and a resting tension of 100 p, the hind limb was fixed at the tibia by means of a clamp. Direct stimulation of the muscles consisted of square wave pulses of a 4 msec duration at a frequency of 2 Hz and at a voltage of 50 V. In order to keep the muscles wet and at a normal temperature, the muscles were continuously superfused by means of a NaCI-solution (0.9%, 38°C). Femoral blood flow was restricted by a graded occlusion of the artery leading to a reduction of contractility by ca. 30%. After having reached a constant level of the contraction force, the vehicle (NaCI and Methocel®, respectively) was injected, followed by the test substance.

In the case of CCCCn1c(=O)c2c(ncn2CC(C)=O)n(CCCC)c1=O [Compound A, 1,3-di-n-butyl-7-(2-oxopropyl)xanthine], the LD50 [1] is reported as over 1000 mg/kg, the “t (min), time interval to reach initial values, initial phase BP decrease” value ([2]; 50 µg/kg i.v.) is reported as 2 min and the “t (min), time interval to reach initial values, second phase BP increase” value ([2]; 50 µg/kg i.v.) is reported as 33 min. For the same compound, the “t (min), time interval to reach initial values, initial phase BP decrease” value ([2]; 125 µg/kg i.v.) was 3 min, the “t (min), time interval to reach initial values, second phase BP increase” value ([2]; 125 µg/kg i.v.) was 32 min and the “Δ second phase BP increase X̄ ± S” value ([2]; 125 µg/kg i.v.) was “+10.8 ± 8.3 percentage of initial values”. The “t (min), time interval to reach initial values, initial phase BP decrease” value ([2]; 313 µg/kg i.v., n = 1) was 2 min, the “t (min), time interval to reach initial values, second phase BP increase” value ([2]; 313 µg/kg i.v., n = 1) was 6 min and the “Δ initial phase BP decrease” value ([2]; 313 µg/kg i.v., n = 1) was −25.0 n = 1 percentage of initial values. For the same compound, the “Δ second phase BP increase” value ([2]; 313 µg/kg i.v., n = 1) was “+15.0 n = 1 percentage of initial values”, the “solubility in aqueous media” value [3] was “only sparingly soluble” and the “effect of Compound A 125 μg/kg i.v. ΔpO2 (Torr)” value (skeletal muscle; 125 μg/kg i.v.) was 19.3 (p≤0.01) Torr and 3.4 (p≤0.01) Torr and 13.2 (p≤0.01) Torr and 3.8 (p≤0.01) Torr and 3.5 (p≤0.01) Torr. The “effect of Compound A 125 μg/kg i.v. ΔpO2 (Torr)” value ([4]; hind limb art. lig., 125 μg/kg i.v., individual cats) was 5.6 (p≤0.01) Torr and 6.2 (p≤0.01) Torr and 7.3 (p≤0.01) Torr and 5.2 (p≤0.01) Torr and 27.1 (p≤0.01) Torr and 11.2 (p≤0.01) Torr, the “pO2 (mmHg) (increase)” value ([4]; i.d., 50 µg/kg) was 4 (50 µg) mmHg and the “pO2 (mmHg) (increase)” value ([4]; i.v., 125 µg/kg) was 10 (125 µg) mmHg. The “t (min), time interval to reach initial values, muscle contract.” value (shortened to “t (min), time interval … muscle contract.”) ([5]; 50 µg/kg i.v.) was over 60 min, the “t (min), time interval … muscle contract.” value ([5]; 125 µg/kg i.v.) was over 60 min and the “t (min), time interval … muscle contract.” value ([5]; 313 µg/kg i.v., n = 1) was over 60 min. The Δ muscle contract. ([5]; 313 µg/kg i.v., n = 1) was “+25.0 n = 1 percentage of initial values”, the “contractility (% initial value)” value ([5]; i.d., 125 µg/kg) was 32 (125 µg) % initial value and the “contractility (% initial value)” value ([5]; i.v., 50 µg/kg) was 36 (50 µg) % initial value.
With CC(=O)CCCCn1c(=O)c2c(ncn2C)n(C)c1=O [Compound B, pentoxyphylline] the “effect of Compound B in relation to Compound A (%)” value (skeletal muscle; B 5 mg/kg i.v. vs A 125 μg/kg i.v.) was 74.3% and 0% (3×) and 27%, the “effect of Compound B 5 mg/kg i.v. ΔpO2 (Torr)” value ([4]; hind limb art. lig., 5 mg/kg i.v., individual cats) was 1.3 (p≤0.01) Torr and 1.6 (p≤0.01) Torr and 4.9 (p≤0.01) Torr and 7.3 (p≤0.01) Torr and the “effect of Compound B in relation to Compound A (%)” value ([4]; hind limb art. lig., B 5 mg/kg i.v. vs A 125 μg/kg i.v., individual cats) was 22.9% and 26.6% and 0% (2×) and 17.9% and 65.6%. For the same compound, the “pO2 (mmHg) (increase)” value ([4]; i.d., 12.5 mg/kg) was 3 (12.5 mg) mmHg, the “pO2 (mmHg) (increase)” value ([4]; i.v., 5 mg/kg) was 2 (5 mg) mmHg and the “contractility (% initial value)” value ([5]; i.d., 32 mg/kg) was 23 (32 mg) % initial value. The “contractility (% initial value)” value ([5]; i.v., 5 mg/kg) was 9 (5 mg) % initial value.
For CCCCn1c(=O)c2c(ncn2CCC(C)=O)n(CCCC)c1=O [Compound C, 1,3-di-butyl-7-(3-oxobutyl)xanthine, reference compound], the “pO2 (mmHg) (increase)” value ([4]; i.d., 32 mg/kg) was 6 (32 mg) mmHg and the “contractility (% initial value)” value ([5]; i.d., 12.5 mg/kg) was 22 (12.5 mg) % initial value.
